Source: patent US9376420B2 (YUHAN CORPORATION, priority 2012, dated 2016)

Molecular target: T1, human LXRβ (Homo sapiens, UniProt P55055)
T1 construct: expressed in transfected cells; host or cells: HEK293 cells (ATCC CRL-1573), transient transfection with pFA-hLXRβ/GAL4 and pUAS
T1 sequence (P55055 222-460 limits assumed): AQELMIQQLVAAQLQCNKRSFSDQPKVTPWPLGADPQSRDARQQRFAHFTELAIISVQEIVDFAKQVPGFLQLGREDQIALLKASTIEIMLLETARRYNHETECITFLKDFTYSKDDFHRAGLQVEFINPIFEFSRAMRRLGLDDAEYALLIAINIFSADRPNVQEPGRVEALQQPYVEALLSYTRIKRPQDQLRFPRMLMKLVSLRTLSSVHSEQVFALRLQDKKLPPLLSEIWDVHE
Assay: Assay for Transcriptional Activity of LXRβ (GAL4-hLXRβ LBD luciferase reporter, transient transfection)
Assay type: cell-based
Details: HEK293 cells transfected with pFA-hLXRβ/GAL4 and pUAS, 24 hours; for Emax: fold value in comparison with the control (DMSO-treated group); for EC50: increase of transcriptional activity of LXRβ, average of three independent tests
Summary of the method: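 HEK293 cells transiently co-transfected with GAL4-hLXRβ LBD and 5×GAL4-UAS luciferase reporter, treated 24 h at 37 °C with compounds over 9 points (0.01–50 μM, half-log). Luminescence read after lysis; EC50 from four-parameter fit, mean of three independent tests, with a known LXR agonist as positive control.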

Row | SMILES | Emax | EC50
1 | OC(C1=NN(c2ccccc2Cl)C(c2ccc(-c3ccc(F)cc3)cc2F)C1)(C(F)(F)F)C(F)(F)F (centres unmarked) [Example 344, 1-(2-chloro-phenyl)-5-(3,4′-difluoro-biphenyl-4-yl)-3-[di-(trifluoromethyl)-hydroxy-methyl]-4,5-dihydro-1H-pyrazole] | 53 fold | 989 nM
2 | CS(=O)(=O)N1CC=C(c2ccc(C3CC(C(O)(C(F)(F)F)C(F)(F)F)=NN3c3ccccc3Cl)cn2)CC1 (centres unmarked) [Example 358, 1-(2-chloro-phenyl)-5-[6-(1-methanesulfonyl-1,2,3,6-tetrahydropyridin-4-yl)-pyridin-3-yl]-3-[di-(trifluoromethyl)-hydroxy-methyl]-4,5-dihydro-1H-pyrazole] | 90 fold | 719 nM
3 | Cc1ncccc1-c1ccc(C2CC(C(O)(C(F)(F)F)C(F)(F)F)=NN2c2ccc(F)cc2F)cc1 (centres unmarked) [Example 376, 1-(2,4-difluoro-phenyl)-5-(4-(2-methyl-pyridin-3-yl)-phenyl)-3-[di-(trifluoromethyl)-hydroxy-methyl]-4,5-dihydro-1H-pyrazole] | 39 fold | 325 nM
4 | Fc1ccc(N2N=C(C(F)(F)C(F)(F)F)CC2c2cccc(-c3cncnc3)c2)c(F)c1 (centres unmarked) [Example 57, 1-(2,4-difluoro-phenyl)-3-pentafluoroethyl-5-[3-(5-pyrimidyl)-phenyl]-4,5-dihydro-1H-pyrazole] | 39 fold | 4770 nM
5 | COc1ccc(-c2ccc(C3CC(C(O)(C(F)(F)F)C(F)(F)F)=NN3c3ccccc3Cl)cc2F)cc1 (centres unmarked) [Example 363, 1-(2-chloro-phenyl)-5-(2-fluoro-4′-methoxy-biphenyl-4-yl)-3-[di-(trifluoromethyl)-hydroxy-methyl]-4,5-dihydro-1H-pyrazole] | 50 fold | 1210 nM
6 | CN(CCCS(=O)(=O)c1cccc(-c2ccc(C3CC(C(O)(C(F)(F)F)C(F)(F)F)=NN3c3ccccc3Cl)cc2)c1)C(=O)OC(C)(C)C (centres unmarked) [Example 285, 5-{3′-[3-(N-BOC-N-methyl-amino)-propane-1-sulfonyl]-biphenyl-4-yl}-1-(2-chloro-phenyl)-3-[di-(trifluoromethyl)-hydroxy-methyl]-4,5-dihydro-1H-pyrazole] | 73 fold | 62 nM
7 | CSc1cccc(-c2ccc(C3CC(C(O)(C(F)(F)F)C(F)(F)F)=NN3c3ccc(F)cc3F)cc2)c1 (centres unmarked) [Example 369, 1-(2,4-difluoro-phenyl)-5-(3′-methylsulfanyl-biphenyl-4-yl)-3-[di-(trifluoromethyl)-hydroxy-methyl]-4,5-dihydro-1H-pyrazole] | 28 fold | 666 nM
8 | CC(=O)c1cccc(-c2ccc(C3CC(C(O)(C(F)(F)F)C(F)(F)F)=NN3c3ccccc3Cl)cc2F)c1 (centres unmarked) [Example 361, 5-(3′-acetyl-2-fluoro-biphenyl-4-yl)-1-(2-chloro-phenyl)-3-[di-(trifluoromethyl)-hydroxy-methyl]-4,5-dihydro-1H-pyrazole] | 39 fold | 632 nM
9 | CS(=O)(=O)c1ccc(-c2ccc(C3CC(C(O)(C(F)(F)F)C(F)(F)F)=NN3c3ccccc3Cl)cc2F)cc1 (centres unmarked) [Example 365, 1-(2-chloro-phenyl)-5-(2-fluoro-4′-methylsulfonyl-biphenyl-4-yl)-3-[di-(trifluoromethyl)-hydroxy-methyl]-4,5-dihydro-1H-pyrazole] | 68 fold | 283 nM
10 | CN(C)S(=O)(=O)N1CCCN(c2ccc(C3CC(C(O)(C(F)(F)F)C(F)(F)F)=NN3c3ccc(F)cc3F)cc2)CC1 (centres unmarked) [Example 411, 1-(2,4-difluoro-phenyl)-5-[4-(4-dimethylsulfamoyl-homopiperazin-1-yl)-phenyl]-3-[di-(trifluoromethyl)-hydroxy-methyl]-4,5-dihydro-1H-pyrazole] | 62 fold | 461 nM
11 | OC(C1=NN(c2ccccc2Cl)C(c2ccc(-c3ccc(C(F)(F)F)nc3)cc2)C1)(C(F)(F)F)C(F)(F)F (centres unmarked) [Example 272, 1-(2-chloro-phenyl)-5-[4-(6-trifluoromethyl-pyridin-3-yl)-phenyl]-3-[di-(trifluoromethyl)-hydroxy-methyl]-4,5-dihydro-1H-pyrazole] | 24 fold | 2250 nM
12 | COc1ncc(-c2ccc(C3CC(C(O)(C(F)(F)F)C(F)(F)F)=NN3c3ccccc3Cl)cc2)c(OC)n1 (centres unmarked) [Example 280, 1-(2-chloro-phenyl)-5-[4-(2,4-dimethoxy-pyrimidin-5-yl)-phenyl]-3-[di-(trifluoromethyl)-hydroxy-methyl]-4,5-dihydro-1H-pyrazole] | 81 fold | 556 nM
13 | OC(C1=NN(c2ccc(F)cc2F)C(c2ccc(-c3ccc(C(F)(F)F)nc3)cc2)C1)(C(F)(F)F)C(F)(F)F (centres unmarked) [Example 377, 1-(2,4-difluoro-phenyl)-5-[4-(6-trifluoromethyl-pyridin-3-yl)-phenyl]-3-[di-(trifluoromethyl)-hydroxy-methyl]-4,5-dihydro-1H-pyrazole] | 15 fold | 890 nM

Other lines, results leading:

Row | Emax | EC50 | SMILES
14 | 87 fold | 1400 nM | CS(=O)(=O)c1cccc(-c2cccc(N3N=C(C(F)(F)C(F)(F)F)CC3c3ccc(F)cc3F)c2)c1 (centres unmarked) [Example 206, 5-(2,4-difluoro-phenyl)-1-[3′-(methylsulfonyl)-biphenyl-3-yl]-3-pentafluoroethyl-4,5-dihydro-1H-pyrazole]
15 | 157 fold | 225 nM | CS(=O)(=O)c1cccc(-c2cncc(C3CC(C(F)(F)C(F)(F)F)=NN3c3ccc(F)cc3F)c2)c1 (centres unmarked) [Example 165, 1-(2,4-difluoro-phenyl)-5-[3-(3-methanesulfonyl-phenyl)-pyridin-5-yl]-3-pentafluoroethyl-4,5-dihydro-1H-pyrazole]
16 | 9 fold | 1620 nM | CNCCCS(=O)(=O)c1cccc(-c2cccc(N3N=C(C(F)(F)C(F)(F)F)CC3c3ccc(F)cc3F)c2)c1.Cl (centres unmarked) [Example 212, 5-(2,4-difluoro-phenyl)-1-[3′-(3-methylamino-propane-1-sulfonyl)-biphenyl-3-yl]-3-pentafluoroethyl-4,5-dihydro-1H-pyrazole hydrochloride]
17 | 17 fold | 2240 nM | CSc1cccc(-c2cccc(N3N=C(C(O)(C(F)(F)F)C(F)(F)F)CC3c3ccccc3Cl)c2)c1 (centres unmarked) [Example 431, 5-(2-chloro-phenyl)-1-[3′-(methylsulfanyl)-biphenyl-3-yl]-3-[di-(trifluoromethyl)-hydroxy-methyl]-4,5-dihydro-1H-pyrazole]
18 | 9 fold | 15200 nM | Fc1ccc(N2N=C(C(F)(F)C(F)(F)F)CC2c2cccc(-c3ccc(C(F)(F)F)nc3)c2)c(F)c1 (centres unmarked) [Example 72, 1-(2,4-difluoro-phenyl)-3-pentafluoroethyl-5-(3-(2-trifluoromethyl-pyridin-5-yl)-phenyl)-4,5-dihydro-1H-pyrazole]
19 | 119 fold | 543 nM | CS(=O)(=O)c1ccc(-c2ccnc(C3CC(C(F)(F)C(F)(F)F)=NN3c3ccc(F)cc3F)c2)cc1 (centres unmarked) [Example 174, 1-(2,4-difluoro-phenyl)-5-[4-(4-methanesulfonyl-phenyl)-pyridin-2-yl]-3-pentafluoroethyl-4,5-dihydro-1H-pyrazole]
